Measurements published in publication PMC12566624, “A Second Opportunity for the Peptide-Based Analogues with γ-Lactam at the P1 Position: Human Cathepsin S Inhibition” (Pharmaceuticals, 2025).

target: T1, human cathepsin S (hCatS) (Homo sapiens, UniProt P25774); assay: fluorogenic enzyme inhibition assay, Cbz-Val-Val-Arg-AMC substrate; Ki from IC50; format: biochemical
T1 construct: gene CTSS
T1 sequence (P25774 115-331): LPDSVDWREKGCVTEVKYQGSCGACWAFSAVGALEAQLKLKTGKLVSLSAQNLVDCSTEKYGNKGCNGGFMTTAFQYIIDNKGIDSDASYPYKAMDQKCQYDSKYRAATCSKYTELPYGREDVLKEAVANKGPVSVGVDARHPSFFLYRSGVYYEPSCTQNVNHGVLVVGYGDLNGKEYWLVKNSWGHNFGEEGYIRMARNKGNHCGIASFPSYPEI

| Ki [nM] | SMILES |
| --- | --- |
| 45.1 ± 3.8 | CC(=O)/C=C/[C@H](C[C@@H]1CCNC1=O)NC(=O)[C@H](CC1CC1)NC(=O)OCc1ccccc1 [SPR39] |
| 58.8 ± 3.6 | CCCC[C@H](NC(=O)OCc1ccccc1)C(=O)N[C@H](/C=C/C(C)=O)C[C@@H]1CCNC1=O [SPR38] |
| 10.7 ± 1.1 | CC(=O)/C=C/[C@H](C[C@@H]1CCNC1=O)NC(=O)[C@H](CC1CCCCC1)NC(=O)OCc1ccccc1 [SPR41] |
